Laboratory results as given in article PMC12147714 (FEMS Microbiology Letters, 2025).
Read-outs that look alike come from different tables or passages of the source.

Columns and labels:
[1] = tested on: PAO1 TnoprD producing NDM-1; test: MIC and checkerboard by broth microdilution, recombinant strain; type: cell-based, Pseudomonas aeruginosa; conditions: NDM-1 TnoprD; antibiotic alone
Description: (§1) The fractional inhibitory concentration index (FICI) was calculated and interpreted as follows: the MIC of drug A in combination/the MIC of drug A alone + the MIC of drug B in combination/the MIC drug B alone. FICI ≤ 0.5 = synergy; 0.5 < FICI ≤ 1 = additive; FICI 1 < FICI < 2 = indifference, and FICI ≥ 2 = antagonism. All susceptibility testing/checkerboard assays were performed in triplicate.

[2] = tested on: PAO1 TnoprD producing IMP-10; test: as above; type: cell-based, Pseudomonas aeruginosa; conditions: IMP-10 TnoprD; antibiotic alone
From the text: (§2) Pseudomonas aeruginosa isolate, PAO1, was used alongside its isogenic counterpart, PAO1 TnoprD, which lacks a functional OprD porin (Held et al. [2012]). β-lactamases, blaIMP-1, blaIMP-10, blaIMP-13, blaNDM-1, blaSPM-1, blaVIM-1, blaVIM-2, and blaKPC-2, had previously been cloned into the pUCP24 shuttle vector (Bouvier et al. [2025]), and were transformed by electroporation into both PAO1 and PAO1 TnoprD.
as §1, with “. MICs of DMSA, CAZ, FEP and checkerboards for the combinations, CAZ/DMSA and FEP/DMSA, were performed for all clinical isolates. All susceptibility testing results were interpreted according to CLSI guidelines (CLSI [2023]). The” for “The”

[3] = tested on: PAO1 TnoprD producing IMP-13; test: as above; type: cell-based, Pseudomonas aeruginosa; conditions: IMP-13 TnoprD; antibiotic alone
From the text: as §2
as §1, with “. MICs of DMSA, CAZ, FEP and checkerboards for the combinations, CAZ/DMSA and FEP/DMSA, were performed for all clinical isolates. All susceptibility testing results were interpreted according to CLSI guidelines (CLSI [2023]). The” for “The”

[4] = tested on: PAO1 TnoprD producing SPM-1; test: as above; type: cell-based, Pseudomonas aeruginosa; conditions: SPM-1 TnoprD; antibiotic alone
From the text: as §2
as §1, with “. MICs of DMSA, CAZ, FEP and checkerboards for the combinations, CAZ/DMSA and FEP/DMSA, were performed for all clinical isolates. All susceptibility testing results were interpreted according to CLSI guidelines (CLSI [2023]). The” for “The”

[5] = tested on: PAO1 TnoprD producing VIM-2; test: as above; type: cell-based, Pseudomonas aeruginosa; conditions: VIM-2 TnoprD; antibiotic alone
From the text: as §2
as §1, with “. MICs of DMSA, CAZ, FEP and checkerboards for the combinations, CAZ/DMSA and FEP/DMSA, were performed for all clinical isolates. All susceptibility testing results were interpreted according to CLSI guidelines (CLSI [2023]). The” for “The”

PAO1 producing IMP-13 = test: as above; type: cell-based, Pseudomonas aeruginosa; conditions: antibiotic alone
From the text: as §2
as §1, with “. MICs of DMSA, CAZ, FEP and checkerboards for the combinations, CAZ/DMSA and FEP/DMSA, were performed for all clinical isolates. All susceptibility testing results were interpreted according to CLSI guidelines (CLSI [2023]). The” for “The”

PAO1 producing IMP-1 = test: as above; type: cell-based, Pseudomonas aeruginosa; conditions: antibiotic alone
From the text: as §2
as §1, with “. MICs of DMSA, CAZ, FEP and checkerboards for the combinations, CAZ/DMSA and FEP/DMSA, were performed for all clinical isolates. All susceptibility testing results were interpreted according to CLSI guidelines (CLSI [2023]). The” for “The”

PAO1 producing SPM-1 = test: as above; type: cell-based, Pseudomonas aeruginosa; conditions: antibiotic alone
From the text: as §2
as §1, with “. MICs of DMSA, CAZ, FEP and checkerboards for the combinations, CAZ/DMSA and FEP/DMSA, were performed for all clinical isolates. All susceptibility testing results were interpreted according to CLSI guidelines (CLSI [2023]). The” for “The”

PAO1 producing VIM-1 = test: as above; type: cell-based, Pseudomonas aeruginosa; conditions: antibiotic alone
From the text: as §2
as §1, with “. MICs of DMSA, CAZ, FEP and checkerboards for the combinations, CAZ/DMSA and FEP/DMSA, were performed for all clinical isolates. All susceptibility testing results were interpreted according to CLSI guidelines (CLSI [2023]). The” for “The”

PAO1 producing VIM-2 = test: as above; type: cell-based, Pseudomonas aeruginosa; conditions: antibiotic alone
From the text: as §2
as §1, with “. MICs of DMSA, CAZ, FEP and checkerboards for the combinations, CAZ/DMSA and FEP/DMSA, were performed for all clinical isolates. All susceptibility testing results were interpreted according to CLSI guidelines (CLSI [2023]). The” for “The”

[6] = tested on: PAO1 TnoprD producing KPC-2; type: cell-based, Pseudomonas aeruginosa; conditions: KPC-2 TnoprD; antibiotic alone
Description: as §1

PAO1 producing KPC-2 = type: cell-based, Pseudomonas aeruginosa; conditions: antibiotic alone
Description: as §1

[7] = tested on: PAO1 and PAO1 TnoprD producing one of eight different carbapenemases; test: MIC and checkerboard, isogenic strains as a group; type: cell-based, Pseudomonas aeruginosa
From the text: as §2
as §1, with “. MICs of DMSA, CAZ, FEP and checkerboards for the combinations, CAZ/DMSA and FEP/DMSA, were performed for all clinical isolates. All susceptibility testing results were interpreted according to CLSI guidelines (CLSI [2023]). The” for “The”

IMP-10 [8] = biological target: T1, IMP-10 (Serratia marcescens, UniProt P52699, V49F); conditions: ref Le Terrier et al. 2024; cited from earlier work
T1 sequence (P52699 19-246 V49F): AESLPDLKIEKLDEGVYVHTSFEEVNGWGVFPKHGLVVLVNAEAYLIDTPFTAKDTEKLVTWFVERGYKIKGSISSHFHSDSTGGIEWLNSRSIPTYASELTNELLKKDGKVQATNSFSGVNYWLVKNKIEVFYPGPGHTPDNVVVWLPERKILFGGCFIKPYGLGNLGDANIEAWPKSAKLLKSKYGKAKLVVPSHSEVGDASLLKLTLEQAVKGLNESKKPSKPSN

IMP-1 = IMP-1 (Serratia marcescens, UniProt P52699); test: IC50, inhibition of cephalothin hydrolysis by crude extract
Chain of IMP-1 (P52699 19-246 limits assumed): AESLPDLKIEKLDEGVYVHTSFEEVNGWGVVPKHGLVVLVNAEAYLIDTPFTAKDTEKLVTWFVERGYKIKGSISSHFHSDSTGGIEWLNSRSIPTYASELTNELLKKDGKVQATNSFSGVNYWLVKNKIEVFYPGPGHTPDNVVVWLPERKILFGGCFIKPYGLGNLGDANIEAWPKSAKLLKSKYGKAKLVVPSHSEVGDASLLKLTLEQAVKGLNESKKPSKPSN

IMP-10 [9] = biological target: T1, IMP-10; test: as above
IMP-13 = IMP-13 (Pseudomonas aeruginosa, UniProt Q7WYA8); test: as above
Chain of IMP-13 (Q7WYA8 21-246): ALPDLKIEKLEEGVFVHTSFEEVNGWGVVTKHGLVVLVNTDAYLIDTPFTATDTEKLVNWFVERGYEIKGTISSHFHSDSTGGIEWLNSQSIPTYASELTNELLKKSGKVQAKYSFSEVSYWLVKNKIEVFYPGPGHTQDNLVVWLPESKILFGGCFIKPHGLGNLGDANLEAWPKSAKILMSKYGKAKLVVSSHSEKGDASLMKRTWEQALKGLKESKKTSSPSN

SPM-1 = SPM-1 (Pseudomonas aeruginosa, UniProt Q8G9Q0); test: as above
Chain of SPM-1 (Q8G9Q0 entry or part of it): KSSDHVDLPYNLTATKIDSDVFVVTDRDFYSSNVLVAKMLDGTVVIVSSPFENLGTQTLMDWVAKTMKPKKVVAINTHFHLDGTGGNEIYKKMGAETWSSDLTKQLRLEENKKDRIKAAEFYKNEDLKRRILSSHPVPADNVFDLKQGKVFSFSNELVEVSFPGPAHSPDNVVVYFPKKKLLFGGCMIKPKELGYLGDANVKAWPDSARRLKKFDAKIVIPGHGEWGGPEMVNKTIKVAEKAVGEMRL

VIM-1 = VIM-1 (Pseudomonas aeruginosa, UniProt A0A0F7KYQ8); test: as above
VIM-2 = VIM-2 (Escherichia coli, UniProt Q5U7L7); test: as above
[10] = tested on: PAO1 TnoprD producing IMP-1; test: MIC and checkerboard by broth microdilution, recombinant strain; type: cell-based, Pseudomonas aeruginosa; conditions: IMP-1 TnoprD; antibiotic alone
Description: as §1

PAO1 producing IMP-10 = test: as above; type: cell-based, Pseudomonas aeruginosa; conditions: antibiotic alone
Description: as §1

PAO1 producing NDM-1 = test: as above; type: cell-based, Pseudomonas aeruginosa; conditions: antibiotic alone
Description: as §1

[11] = tested on: PAO1 TnoprD producing VIM-1; test: as above; type: cell-based, Pseudomonas aeruginosa; conditions: VIM-1 TnoprD; antibiotic alone
Description: as §1

IMP-producers = tested on: IMP-producers; parameters: method as in Hamrick et al. 2020, Le Terrier et al. 2024; conditions: ref Hamrick et al. 2020, Le Terrier et al. 2024; cited from earlier work

C[C@@H](O)[C@H]1C(=O)N2C(C(=O)O)=C(S[C@@H]3CN[C@H](C(=O)N(C)C)C3)[C@H](C)[C@H]12 [MEM, meropenem]
MIC [1]: 256 µg/mL | MIC [2]: 256 µg/mL | MIC [3]: 8 µg/mL | MIC [4]: 64 µg/mL | MIC [5]: 8 µg/mL | MIC (PAO1 producing IMP-13): 4 µg/mL | MIC (PAO1 producing IMP-1): 64 µg/mL | MIC (PAO1 producing SPM-1): 32 µg/mL | MIC (PAO1 producing VIM-1): 64 µg/mL | MIC (PAO1 producing VIM-2): 4 µg/mL | MIC [6]: 512 µg/mL | MIC (PAO1 producing KPC-2): 256 µg/mL | interaction with DMSA as indicated by the FICIs ([7]; SPM-1 strains, DMSA 200 and 300 mg/l): synergy (FICI ≤ 0.5 = synergy) | interaction with DMSA as indicated by the FICIs ([7]; strains producing IMP-1, IMP-10 or IMP-13, with and without functional OprD, DMSA 200 and 300 mg/l): synergy (FICI ≤ 0.5 = synergy)

O=C(O)c1c(F)ccc2c1OB(O)[C@@H]1C[C@H]21 [XER, xeruborbactam]
activity against IMP-10 (IMP-10 [8]): limited activity | IC50 (IMP-1): 2.7 µM | IC50 (IMP-10 [9]): 73 µM | IC50 (IMP-13): 3.6 µM | IC50 (SPM-1): > 1000 µM | IC50 (VIM-1): 500 nM | IC50 (VIM-2): 100 nM

C[C@@H](O)[C@H]1C(=O)N2C(C(=O)O)=C(SCCN=CN)C[C@H]12 [IPM, imipenem]
MIC [10]: 64 µg/mL | MIC (PAO1 producing IMP-10): 8 µg/mL | MIC (PAO1 producing NDM-1): 32 µg/mL | MIC [2]: 64 µg/mL | MIC [3]: 8 µg/mL | MIC [4]: 16 µg/mL | MIC [5]: 32 µg/mL | MIC (PAO1 producing IMP-13): 1 µg/mL | MIC (PAO1 producing IMP-1): 16 µg/mL | MIC (PAO1 producing SPM-1): 2 µg/mL | MIC (PAO1 producing VIM-1): 64 µg/mL | MIC (PAO1 producing VIM-2): 4 µg/mL | MIC [6]: 512 µg/mL

CO/N=C(\C(=O)N[C@@H]1C(=O)N2C(C(=O)[O-])=C(C[N+]3(C)CCCC3)CS[C@H]12)c1csc(N)n1 [FEP, cefepime]
MIC [10]: 512 µg/mL | MIC [1]: 256 µg/mL | MIC [11]: 512 µg/mL | MIC (PAO1 producing IMP-10): 256 µg/mL | MIC (PAO1 producing NDM-1): 256 µg/mL | MIC [2]: 256 µg/mL | MIC [3]: 16 µg/mL | MIC [4]: 64 µg/mL | MIC [5]: 2 µg/mL | MIC (PAO1 producing IMP-13): 16 µg/mL | MIC (PAO1 producing IMP-1): 512 µg/mL | MIC (PAO1 producing SPM-1): 64 µg/mL | MIC (PAO1 producing VIM-1): 512 µg/mL | MIC (PAO1 producing VIM-2): 2 µg/mL | MIC [6]: 512 µg/mL | MIC (PAO1 producing KPC-2): 512 µg/mL | interaction with DMSA as indicated by the FICIs ([7]; strains producing IMP-1, IMP-10 or IMP-13, with and without functional OprD, all three DMSA concentrations (100, 200, 300 mg/l)): synergy (FICI ≤ 0.5 = synergy)

NCCN[C@H]1CC[C@H](CC(=O)N[C@H]2Cc3cccc(C(=O)O)c3OB2O)CC1 [TAN, taniborbactam]
activity against IMP-producers (IMP-producers): poor activity | IC50 (IMP-1; IMP-1, 100 μM cephalothin, pH 7.0): > 1000 µM | IC50 (IMP-10 [9]; IMP-10, 100 μM cephalothin, pH 7.0): > 1000 µM | IC50 (IMP-13; IMP-13, 100 μM cephalothin, pH 7.0): > 1000 µM | IC50 (SPM-1; SPM-1, 100 μM cephalothin, pH 7.0): 2.7 µM | IC50 (VIM-1; VIM-1, 100 μM cephalothin, pH 7.0): 800 nM | IC50 (VIM-2; VIM-2, 100 μM cephalothin, pH 7.0): 500 nM
